Results reported in patent US10219516B2, “Molecules having pesticidal utility, and intermediates, compositions, and processes, related thereto” (priority 2015, dated 2019).

How the values were obtained:
[1] = tested on: Beet Armyworm (Spodoptera exigua, LAPHEG); assay: Bioassay on Beet Armyworm (BAW), 128-well diet tray assay; type: in vivo; settings: Species BAW (Beet Armyworm), read-out: BAW (Biological Results, rating)
In short: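 Diet in each of eight wells received 50 μg/cm^2 of test molecule (90:10 acetone-water, dried), then one to five second-instar larvae were added. Mortality (%) was scored after five to seven days at 25° C. under 14:10 light-dark and averaged across the wells.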

[2] = tested on: Cabbage Looper (Trichoplusia ni, TRIPNI); assay: Bioassay on Cabbage Looper (CL), 128-well diet tray assay; type: in vivo; settings: Trichoplusia ni; Species CL (Cabbage Looper); read-out: CL (Biological Results, rating)
In short: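 Using eight wells per molecule, artificial diet was dosed at 50 μg/cm^2 with compound in 90:10 acetone-water and dried before one to five second-instar larvae were added per well. Covered vented trays were kept at 25° C. with 14:10 light-dark for five to seven days, then per-well percent mortality was recorded and averaged.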

SMILES	pest or weed control at 50 µg/cm2 [1] [%]	pest or weed control at 50 µg/cm2 [2] [%]
Cc1ccc(C(=O)Nc2ccc(F)cc2)cc1NC(=O)[C@H]1[C@H](c2cc(Cl)cc(Cl)c2)C1(Cl)Cl (relative stereo) [F134, trans-3-(2,2-Dichloro-3-(3,5-dichlorophenyl)cyclopropane-1-carboxamido)-N-(4-fluorophenyl)-4-methylbenzamide]	50 to 100	50 to 100
O=C(Nc1ccc([N+](=O)[O-])cc1)c1cc(NC(=O)[C@H]2[C@H](c3cc(Cl)cc(Cl)c3)C2(Cl)Cl)ccc1Cl (relative stereo) [F137, trans-2-chloro-5-(2,2-dichloro-3-(3,5-dichlorophenyl)cyclopropane-1-carboxamido)-N-(4-nitrophenyl)benzamide]	50 to 100	50 to 100
O=C(Nc1cnns1)c1cc(NC(=O)[C@H]2[C@H](c3cc(Cl)cc(Cl)c3)C2(Cl)Cl)ccc1Cl (relative stereo) [F138, trans-2-Chloro-5-(2,2-dichloro-3-(3,5-dichlorophenyl)cyclopropane-1-carboxamido)-N-(1,2,3-thiadiazol-5-yl)benzamide]	50 to 100	50 to 100
O=C(Nc1cc[n+]([O-])cc1)c1cc(NC(=O)[C@H]2[C@H](c3cc(Cl)cc(Cl)c3)C2(Cl)Cl)ccc1Cl (relative stereo) [F140, trans-4-(2-Chloro-5-(2,2-dichloro-3-(3,5-dichlorophenyl)cyclopropane-1-carboxamido)benzamido)pyridine 1-oxide]	50 to 100	50 to 100
O=C(Nc1ccc(F)cc1)c1cc(NC(=O)[C@H]2[C@H](c3cc(Cl)cc(Cl)c3)C2(Cl)Cl)cc[n+]1[O-] (relative stereo) [F141, trans-4-(2,2-Dichloro-3-(3,5-dichlorophenyl)cyclopropane-1-carboxamido)-2-((4-fluorophenyl)carbamoyl)pyridine 1-oxide]	50 to 100	50 to 100
CS(=O)(=O)c1ccc(NC(=O)c2cc(NC(=O)[C@H]3[C@H](c4cc(Cl)cc(Cl)c4)C3(Cl)Cl)ccc2Cl)cc1 (relative stereo) [F143, trans-2-Chloro-5-(2,2-dichloro-3-(3,5-dichlorophenyl)cyclopropane-1-carboxamido)-N-(4-(methylsulfonyl)phenyl)benzamide]	50 to 100	50 to 100
N#Cc1ccc(NC(=O)c2cc(NC(=O)[C@H]3[C@H](c4cc(Cl)cc(Cl)c4)C3(Cl)Cl)ccc2Cl)c(F)c1 (relative stereo) [F144, trans-2-Chloro-N-(4-cyano-2-fluorophenyl)-5-(2,2-dichloro-3-(3,5-dichlorophenyl)cyclopropane-1-carboxamido)benzamide]	50 to 100	50 to 100
O=C(Nc1ncco1)c1cc(NC(=O)[C@H]2[C@H](c3cc(Cl)cc(Cl)c3)C2(Cl)Cl)ccc1Cl (relative stereo) [F145, trans-2-Chloro-5-(2,2-dichloro-3-(3,5-dichlorophenyl)cyclopropane-1-carboxamido)-N-(oxazol-2-yl)benzamide]	50 to 100	50 to 100
CSc1ccc(NC(=O)c2cc(NC(=O)[C@H]3[C@H](c4cc(Cl)cc(Cl)c4)C3(Cl)Cl)ccc2Cl)cc1 (relative stereo) [F149, trans-2-Chloro-5-(2,2-dichloro-3-(3,5-dichlorophenyl)cyclopropane-1-carboxamido)-N-(4-(methylthio)phenyl)benzamide]	50 to 100	50 to 100
CS(=O)(=O)c1ccc(NC(=O)[C@H]2[C@H](c3cc(Cl)cc(Cl)c3)C2(Cl)Cl)cc1C(=O)Nc1ccc(F)cc1 (relative stereo) [F157, trans-5-(2,2-dichloro-3-(3,5-dichlorophenyl)cyclopropane-1-carboxamido)-N-(4-fluorophenyl)-2-(methylsulfonyl)benzamide]	50 to 100	50 to 100
C[S+]([O-])c1ccc(NC(=O)[C@H]2[C@H](c3cc(Cl)cc(Cl)c3)C2(Cl)Cl)cc1C(=O)Nc1ccc(F)cc1 (relative stereo) [F158, trans-5-(2,2-dichloro-3-(3,5-dichlorophenyl)cyclopropane-1-carboxamido)-N-(4-fluorophenyl)-2-(methylsulfinyl)benzamide]	50 to 100	50 to 100
C[S+]([O-])c1ccc(NC(=O)c2cc(NC(=O)[C@H]3[C@H](c4cc(Cl)cc(Cl)c4)C3(Cl)Cl)ccc2Cl)cc1 (relative stereo) [F159, trans-2-Chloro-5-(2,2-dichloro-3-(3,5-dichlorophenyl)cyclopropane-1-carboxamido)-N-(4-(methylsulfinyl)phenyl)benzamide]	50 to 100	50 to 100
O=C(Nc1c(F)cccc1F)c1cc(NC(=O)[C@H]2[C@H](c3cc(F)cc(Cl)c3)C2(Cl)Cl)ccc1Cl (relative stereo) [F160, trans-2-Chloro-5-(2,2-dichloro-3-(3-chloro-5-fluorophenyl)cyclopropane-1-carboxamido)-N-(2,6-difluorophenyl)benzamide]	50 to 100	50 to 100
COc1c(Cl)cc([C@H]2[C@H](C(=O)Nc3ccc(Cl)c(C(=O)Nc4ccc(NC(C)=O)cc4)c3)C2(Cl)Cl)cc1Cl (relative stereo) [F181, trans-N-(4-Acetamidophenyl)-2-chloro-5-(2,2-dichloro-3-(3,5-dichloro-4-methoxyphenyl)cyclopropane-1-carboxamido)benzamide]	50 to 100	50 to 100
CNc1ccc(NC(=O)c2cc(NC(=O)[C@H]3[C@H](c4cc(Cl)c(OC)c(Cl)c4)C3(Cl)Cl)ccc2Cl)cc1 (relative stereo) [F182, trans-2-Chloro-5-(2,2-dichloro-3-(3,5-dichloro-4-methoxyphenyl)cyclopropane-1-carboxamido)-N-(4-(methylamino)phenyl)benzamide]	50 to 100	50 to 100
CN(C(=O)[C@H]1[C@H](c2cc(Cl)cc(Cl)c2)C1(Cl)Cl)c1ccc(Cl)c(C(=O)Nc2ccc(F)cc2)c1 (relative stereo) [F183, trans-2-Chloro-5-(2,2-dichloro-3-(3,5-dichlorophenyl)-N-methylcyclopropane-1-carboxamido)-N-(4-fluorophenyl)benzamide]	50 to 100	50 to 100
N#Cc1cc(F)ccc1NC(=O)c1cc(NC(=O)[C@H]2[C@H](c3cc(Cl)c(Cl)c(Cl)c3)C2(Cl)Cl)ccc1Cl (relative stereo) [F191, trans-2-Chloro-N-(2-cyano-4-fluorophenyl)-5-(2,2-dichloro-3-(3,4,5-trichlorophenyl)cyclopropane-1-carboxamido)benzamide]	50 to 100	50 to 100
N#Cc1cc(F)ccc1NC(=O)c1cc(NC(=O)[C@H]2[C@H](c3ccc(F)c(Cl)c3)C2(Cl)Cl)ccc1Cl (relative stereo) [F192, trans-2-Chloro-N-(2-cyano-4-fluorophenyl)-5-(2,2-dichloro-3-(3-chloro-4-fluorophenyl)cyclopropane-1-carboxamido)benzamide]	50 to 100	50 to 100
